Laboratory results from article PMC5131915, “Platinum(II) Iodido Complexes of 7-Azaindoles with Significant Antiproliferative Effects: An Old Story Revisited with Unexpected Outcomes” (PLoS ONE, 2016).
Where two headings read alike, the source gives them in different places.

How the values were obtained:
HOS osteosarcoma cells = experiment: In vitro cytotoxicity testing (MTT assay), HOS; format: cell-based, human; settings: for IC50: 24 h drug exposure, no recovery, MTT, read-out: IC50±SD, HOS; for selectivity factor IC50(Hep)/IC50(cancer cell line): HOS; for times more potent than cisplatin: HOS cell line
Method: A2780 ovarian carcinoma, A2780R cisplatin-resistant ovarian carcinoma, HOS osteosarcoma, G361 malignant melanoma, MCF7 breast carcinoma, A549 lung carcinoma, HeLa cervix carcinoma, 22Rv1 prostate carcinoma and Caco-2 colorectal carcinoma human cancer cell lines were purchased from the European Collection of Cell Cultures (ECACC), while the human non-cancerous hepatocytes (Hep) were supplied by Biopredic Intl. The cell lines were cultured, according to the suppliers`instructions, in RPMI-1640 medium supplemented with 10% of fetal calf serum, 1% of 2 mM glutamine, and 1% penicillin/streptomycin. All cell lines were grown as adherent monolayers at 37°C and 5% CO2 in a humidified atmosphere.
The cells were seeded to 96-well culture plates, pre-incubated in drug-free media at 37°C for 24 h and treated typically with the 0.01–50.0 μM solutions, prepared from the stock solutions by dilution with medium, for 24 h at 37°C. […] In parallel with compounds 1–8 and the reference drugs, the cells were also treated with vehicle (0.1% DMF in medium; negative control) and Triton X-100 (1%; positive control) to assess the minimal and maximal cell damage, respectively. The MTT assay was used to determine the cell viability; MTT = 3-(4,5-dimethylthiazol-2-yl)-2,5-diphenyltetrazolium bromide. A concentration of the formed dye was evaluated spectrophotometrically at 540 nm (TECAN, Schoeller Instruments LLC).
(§1) The data were expressed as the percentage of viability, where 100% and 0% represents the treatments with negative and positive controls, respectively. The data from the cancer cells were acquired from three independent experiments (conducted in triplicate) using cells from different passages. The resulting IC50 values (μM) were calculated from viability curves and the results are presented as arithmetic mean±SD.

A2780 cells = experiment: Cell cycle analysis (PI/RNase, flow cytometry), A2780; format: cell-based, human; settings: A2780, 24 h, IC50 concentration
Method: The A2780 and MCF7 cells (1.0 × 10^6 per well) were pre-incubated in a six-well plate for 24 h as described above. […] After 24 h, floating cells were collected and attached cells were harvested using trypsin/EDTA in PBS. Total cells were washed twice with PBS and fixed in 70% ethanol. Cells were re-suspended in PBS and DNA staining was achieved by a solution of propidium iodide (PI) supplemented with RNase A (30 min, 25°C, in the dark). […] The data were analysed using CytExpert™ software (Beckman Coulter).

pUC19 plasmid dsDNA = experiment: Gel electrophoresis studies of interaction with pUC19 plasmid dsDNA; parameters: species or system Escherichia coli; settings: 37°C, 24 h; for effect on electrophoretic mobility of pUC19 forms (SC, OC, L): 0.23-2.30 μM
Method: Supercoiled pUC19 plasmid dsDNA (2686 bp, 1750 kDa) was isolated from Escherichia coli TOP10F’ by QIAprep Spin Miniprep Kit (Qiagen, Germany). The concentration and purity of the isolated plasmid DNA were evaluated spectrophotometrically. Plasmid was dissolved in nuclease-free water and stored at –20°C.
2 μL of these solutions were added to 18 μL of the pUC19 plasmid DNA water solution (300 ng per reaction, corresponding to a concentration of 23 μM calculated for the base pairs) and the mixture was left to react in the final 10% DMF/90% water solution containing the final concentrations of the complexes of 2.30, 1.15 and 0.23 μM, corresponding to 0.10, 0.05 and 0.01 metal-to-base pair stoichiometry. In parallel, the experiment was performed on plasmid DNA in the 10% DMF/90% water solution and in water. The reaction mixtures were incubated at 37°C for 24 h. An electrophoretic mobility was evaluated by gel electrophoresis ([…], 3 h) performed on a 0.8% (w/v) agarose gel containing EtBr (2.0 mg/L (w/v)) at ambient temperature in Tris-acetate/EDTA buffer. The bands on the obtained electrophoretogram were detected by an MUV21-CP-02 gel scanner (Major Science) and analysed with AlphaEaseFC software (version 4.0.0.34, Alpha Innotech) in order to evaluate the relative percentages of the SC, OC and L forms. Each experiment was performed in triplicate.

p53 = experiment: Ex vivo Western blot of tumour tissues, p53; format: in vivo, mice; settings: pooled tumour samples
Method: (§2) Frozen tumour samples were homogenized by a bench blender IKA DI25 (IKA-Werke, Germany) in the presence of a lysis buffer [cOmplete Protease Inhibitor Cocktail (Roche, Germany), 50 mM Tris-HCl pH 7.5, 1 mM EGTA, 1 mM EDTA, 1 mM sodium orthovanadate, 50 mM sodium fluoride, 5 mM sodium pyrophosphate, 270 mM sucrose, 0.5% (v/v) Triton X-100]. Subsequently, the blended samples were centrifuged at 9.000 g at 4°C for 15 min. The supernatants were collected and the protein concentration was measured by the Brandford’s method using the Brandford reagent (Amresco, USA) according to the manufacturer’s manual. The measured samples were stored at -80°C for the following experiments.
(§3) The expression of caspase 3, MCL-1, p53, and β-actin as loading control were evaluated by Western blot analysis and immunodetection. Lysates were mixed with a denaturing loading dye [250 mM Tris-HCl pH 6.8, 5% (v/v) β-mercaptoethanol, 10% (w/v) sodium dodecyl sulfate, 30% (v/v) glycerol, 0.04% (w/v) bromophenol blue], heated for 5 min at 70°C. To eliminate intra-species variability, and to obtain the same amount of proteins from all experimental groups, all samples from one group of animals were pooled together and loaded onto a 15% polyacrylamide denaturing gel. The final protein amount was 50 μg per well. After protein separation in the gel, they were transferred on the Immun-Blot polyvinylidene difluoride membrane 0.2 μm (Bio-Rad, USA). Then, the membrane was blocked by 5% (w/v) BSA in TBST [10 mM Tris-HCl pH 7.5, 150 mM NaCl, 0.1% (v/v) Tween-20]. […] HRP was detected by Clarity Western ECL Substrate (Bio-Rad, USA) using chemiluminescent documentation system Syngene PXi-4 (UK).

[1] = system: A2780 ovarian carcinoma cells; experiment: In vitro cytotoxicity testing (MTT assay), A2780; format: cell-based, human
Method: All cell lines were grown as adherent monolayers at 37°C and 5% CO2 in a humidified atmosphere.
The MTT assay was used to determine the cell viability; MTT = 3-(4,5-dimethylthiazol-2-yl)-2,5-diphenyltetrazolium bromide. A concentration of the formed dye was evaluated spectrophotometrically at 540 nm (TECAN, Schoeller Instruments LLC).
as §1

MCL-1L (37 kDa) = experiment: Ex vivo Western blot of tumour tissues, MCL-1L; format: in vivo, mice; settings: pooled tumour samples
Method: as §2, §3

[2] = 24 h drug exposure, no recovery, MTT, read-out: IC50±SD, A2780

Row | SMILES | IC50 (HOS osteosarcoma cells) [µM] | G0/G1 population (A2780 cells) [%] | G2/M population (A2780 cells) [%] | S population (A2780 cells) [%] | sub-G1 population (A2780 cells) [%] | effect on electrophoretic mobility of pUC19 forms (SC, OC, L) (pUC19 plasmid dsDNA) | selectivity factor IC50(Hep)/IC50(cancer cell line) (HOS osteosarcoma cells) | times more potent than cisplatin (HOS osteosarcoma cells) [times] | p53 level in tumour tissue (p53) | amount of damaged OC and linear (L) forms of pUC19 DNA (pUC19 plasmid dsDNA; concentration-dependent) | IC50 [1, 2] [µM] | MCL-1L level in tumour tissue (MCL-1L (37 kDa)) | IC50 ([1]; 6 h exposure, read-out: IC50, A2780, time-dependent cytotoxicity) [µM] | IC50 ([1]; 48 h exposure, read-out: IC50, A2780, time-dependent cytotoxicity) [µM]
1 | N.N.[Cl][Pt][Cl] [Cisplatin, cisplatin, reference compound] | 18.9 ± 1.7 | 23.7±1.5 | 23.0±2.2 | 50.6±2.8 | 2.0±0.2 | increase the electrophoretic mobility |  |  |  |  |  |  |  | 
2 | Cc1cc2c(Cl)cc[n+]([Pt-2]([I])([I])[n+]3ccc(Cl)c4cc(C)[nH]c43)c2[nH]1 [Complex 8, cis-[PtI2(2Me4Claza)2]] | 0.7 ± 0.2 | 55.2±2.2 | 23.9±2.3 | 18.3±1.3 | 2.2±0.4 | did not significantly change the mobility | ~14 | ≤ 47 | attenuated | visibly increased | 1.7 ± 0.3 | considerably increased |  | 
3 | Brc1cc[n+]([Pt-2]([I])([I])[n+]2ccc(Br)c3cc[nH]c32)c2[nH]ccc12 [Complex 6, cis-[Pt(4Braza)2I2]] | 0.4 ± 0.1 | 51.5±3.2 | 26.3±1.6 | 17.5±0.9 | 4.3±1.4 | did not significantly change the mobility | ~10 | ≤ 47 | did not affect |  | 3.2 ± 0.2 | negligible effect | 8.2 ± 0.5 | 0.4 ± 0.1
